The subject of one data set is HCT-116. The data set can be described thus: MTS cell proliferation assay, HCT-116. It is filed as cell-based. How it is done:
MTS assays. Antiproliferative effects of anticancer drugs are tested by the CellTiter 96 AQueous assay (Promega, WI), which is a colorimetric assay for determining the number of viable cells. (See, e.g., Wang, L., et al., Methods Cell Sci (1996) 18:249-255). Generally, cells (2,000 to 5,000 cells/well) are seeded on 96 well flat bottom plates (Corning, NY) in 100 μl of culture medium without any anticancer drug on day 0, and the culture medium is exchanged for that contained anticancer drugs at various concentrations on day 1. After incubation for 3 days under normal growth conditions (on day 4), the monolayers are washed once in PBS, and the medium is switched to 100 μl of PBS in each of the 96 well plate. After mixing MTS and PMS at the ratio of 20:1, 20 μl of MTS/PMS solution is added to each of the 96 well plate and incubated for 4 hours in a humidified atmosphere of 5% CO2 at 37° C. The absorbance is read at 490 nm using FLUOstar Galaxy 96 well plate reader (BMG Labtechnologies, Germany).
A general note: Tetrazolium assays rely on reduction of a dye to a coloured formazan, in cell work by metabolically active cells.

In another data set the target is c-Myc template DNA. Kind of data set: Quadruplex binding assay (STOP / Taq polymerase arrest, capillary electrophoresis). Type of data set: biochemical. The note with it: concentration at which 50% of the DNA was arrested (arrested:full-length 1:1). How it is done: Generally, a 5′-fluorescent-labeled (FAM) primer (P45, 15 nM) was mixed with template DNA (15 nM) in a Tris-HCL buffer (15 mM Tris, pH 7.5) containing 10 mM MgCl2, 0.1 mM EDTA and 0.1 mM mixed deoxynucleotide triphosphates (dNTP's). In one example, the FAM-P45 primer (5′ -6FAM-[…] CAATT-3′) (SEQ ID NO. 17) and the c-Myc template DNA (5′-[…] […] […]-3′) (SEQ ID NO. 18) were synthesized and HPLC purified by Applied Biosystems. The mixture was denatured at 95° C. for 5 minutes and, after cooling down to room temperature, was incubated at 37° C. for 15 minutes.
After cooling down to room temperature, 1 mM KCl2 and the test compound (various concentrations) were added and the mixture incubated for 15 minutes at room temperature. The primer extension was performed by adding 10 mM KCl and Taq DNA Polymerase (2.5 U/reaction, Promega) and incubating at 70° C. for 30 minutes. The reaction was stopped by adding 1 μl of the reaction mixture to 10 μl Hi-Di Formamide mixed and 0.25 μl LIZ120 size standard. Hi-Di Formamide and LIZ120 size standard were purchased from Applied Biosystems. The partially extended quadruplex arrest product was between 61 or 62 bases long and the full-length extended product was 99 bases long. The products were separated and analyzed using capillary electrophoresis. Capillary electrophoresis was performed using an ABI PRISM 3100-Avant Genetic Analyzer. The assay was performed using compounds described above and results are shown in Table 1. μM concentrations reported in Table 1 are concentrations at which 50% of the DNA was arrested in the assay (ie., the ratio of shorter partially extended DNA (arrested DNA) to full-length extended DNA is 1:1).
Stop Assays. Stop assays are high throughput, first-pass screens for detecting drugs that bind to and stabilize the target G-quadruplex. Generally, DNA template oligonucleotide is created, which contains the nucleotide sequence of the “target” quadruplex against which drug screening is desired. A fluorescently labeled primer DNA is then annealed to the 3′ end of the template DNA. A DNA polymerase such as Taq polymerase is then introduced to synthesize a complementary strand of DNA by extending from the fluorescently labeled primer. When the progress of the Taq polymerase is unhindered, it synthesizes a full-length copy of the template. […] If, however, the test drug selectively binds to and stabilizes the quadruplex, the progress of polymerase arrests only at the quadruplex, and a characteristic “Stop Product” is synthesized.
Compounds are initially screened at a single concentration, and “hits” are re-assayed over a range of doses to determine an IC50 value (i.e., the concentration of drug required to produce an arrest product/full-length product ratio of 1:1). These products are visualized by capillary electrophoresis.

The next data set deals with HCT116 cells. Kind of data set: HCT-116 colorectal cancer xenograft model, intravenous dosing. Type of data set: in vivo. The note with it: IV bolus, nu/nu mice. How it is done:
6 wk old female nu/nu mice were purchased from Taconic Farms, Germantown N.Y. They were injected with 5×10^6 HCT116 cells SQ in right flank. When tumors reached sufficient size for study, they were randomized into groups. • Vehicle: 242.9 mm^3 • Test compound: 251.0 mm^3
Animals dosed by bolus injection—IV through lateral tail vein for five consecutive days. Caliper measurements were taken on Day 1, 4, 6.
6 wk old female nu/nu mice were purchased from Simonsen Labs, Gilroy, Calif. They were injected with 5×10^6 HCT116 cells SQ in right flank. When tumors reached sufficient size for study, they were randomized into groups. • Vehicle: 101.9 mm^3 • Test compound: 152.8 mm^3
Animals dosed by bolus injection—IV through lateral tail vein for fourteen consecutive days. Caliper measurements were taken on Day 1, 3, 5, 7, 10, 12, 14, and 18.
6 wk old female nu/nu mice were purchased from Simonsen Labs, Gilroy, Calif. They were injected with 5×10^6 HCT116 cells SQ in right flank. When tumors reached sufficient size for study, they were randomized into groups. • Vehicle: 114.6 mm^3 • Test compound: 106.1 mm^3 • Test compound: 84.1 mm^3
Animals dosed by bolus injection—IV through lateral tail vein for fourteen consecutive days. Caliper measurements were taken on Day 1, 4, 6, 8, 12, and 15.
6 wk old female nu/nu mice were purchased from Taconic Farms, Germantown N.Y. They were injected with 5×10^6 HCT116 cells SQ in right flank. When tumors reached sufficient size for study, they were randomized into groups. • Vehicle: 242.9 mm^3 • Test compound: 252.1 mm^3
Animals dosed by bolus injection—IV through lateral tail vein for five consecutive days. Caliper measurements were taken on Day 1, 4, and 6.
6 wk old female nu/nu mice were purchased from Taconic Farms, Germantown N.Y. They were injected with 5×10^6 HCT116 cells SQ in right flank. When tumors reached sufficient size for study, they were randomized into groups. • Vehicle: 242.9 mm^3 • Test compound: 236.1 mm^3
6 wk old female nu/nu mice were purchased from Taconic Farms, Germantown N.Y. They were injected with 5×10^6 HCT116 cells SQ in right flank. When tumors reached sufficient size for study, they were randomized into groups. • Vehicle: 242.9 mm^3 • Test compound: 254.7 mm^3
6 wk old female nu/nu mice were purchased from Taconic Farms, Germantown N.Y. They were injected with 5×10^6 HCT116 cells SQ in right flank. When tumors reached sufficient size for study, they were randomized into groups.
Animals dosed by bolus injection—IV through lateral tail vein for nine consecutive days. Caliper measurements were taken on Day 1, 3, 5, 7, and 9.
Animals dosed by bolus injection—IV through lateral tail vein for seven consecutive days. Caliper measurements were taken on Day 1, 3, 5, and 7.

[1] abbreviates: Homo sapiens, HCT-116, M CELL HCT-116, Table 1C, read-out: M DATA.
Setting [2] is: Homo sapiens, HCT-116, HCT-116, Table 1A, read-out: HCT-116 MTs.
The mark [3] stands for this setting: 12.5 mg/kg, fourteen consecutive days.
Where [4] appears, read: different dose levels, fourteen consecutive days.
Setting [5] is: 25 mg/kg, five consecutive days.
Where [6] appears, read: 25 and 12.5 mg/kg, seven consecutive days.

Where two headings read alike, the source gives them in different places. Where only a bound is given, the exact number is not on record here.

Results on 27 compounds are retold here after patent US7816406B2, “Quinolone analogs” (Cylene Pharmaceuticals, Inc., priority 2004, dated 2010).

On to `CN(C)CCN(C)c1ccc2c(=O)c(C(=O)NCCC3CCCN3C)c3sc4ccccc4n3c2n1` (stereo not shown) [drawing 385], for which, in the data set on HCT-116 (setting [1]), the IC50 was 0.02 µM.
`CN1CCCC1CCNC(=O)c1c(=O)c2cc(F)c(N3CCC(c4cnccn4)C3)cc2n2c1sc1ccccc12` (stereo not shown): the IC50 at c-Myc template DNA was 1.3 µM; with HCT-116 (setting [2]), 3.4 µM.
For the compound `CC(=O)N1CCN(c2ccc3c(=O)c(C(=O)NCCN4CCCC4)c4n(C)c5ccccc5n4c3n2)CC1`, in the data set with HCT116 cells (setting [3]), the “activity in HCT116 xenograft” value is recorded as “activity” and the adverse effects result is “no adverse effects observed”. Moreover, in the data set on HCT116 cells (setting [4]), the “activity in HCT116 xenograft” value was “dose dependent activity” and the adverse effects result was “no adverse effects observed”.
Take `Cn1c2ccccc2n2c3cc(SCCc4cnccn4)c(F)cc3c(=O)c(C(=O)NCCN3CCCC3)c12`: the values for the IC50 on c-Myc template DNA and in the data set with HCT-116 (setting [2]) were 15 µM and 0.3 µM, respectively.
Consider `CC(C)N1CCN(c2cc3c(cc2F)c(=O)c(C(=O)NCCN2CCCC2)c2n(C)c4ccccc4n32)CC1`, for which, on c-Myc template DNA, the IC50 is greater than 15 µM.
Turning to `CC(C)N1CCN(c2cc3c(cc2F)c(=O)c(C(=O)NCCN2CCCC2)c2sc4ccccc4n23)CC1`, the IC50 came out at 9 µM on c-Myc template DNA and 0.3 µM in the data set with HCT-116 (setting [2]).
As for `NC1CCN(c2nc3c(cc2F)c(=O)c(C(=O)NCCN2CCCC2)c2sc4ccccc4n23)C1` (stereo not shown), in the data set on HCT116 cells (setting [5]), the “activity in HCT116 xenograft” value is “activity” and the adverse effects entry is recorded as “no adverse effects observed”.
Taken in the same sequence, the figures for `CC(=O)N1CCN(c2ncc3c(=O)c(C(=O)NCCN4CCCC4)c4sc5ccccc5n4c3n2)CC1` [drawing 653] were “activity” and “no adverse effects observed”.
At c-Myc template DNA, `CC(C)N1CCN(c2cc3c(=O)c(C(=O)NCCC4CCCN4C)c4sc5ccccc5n4c3cc2Cl)CC1` (stereo not shown) displayed an IC50 greater than 15 µM.
For `CN1CCCC1CCNC(=O)c1c(=O)c2cc(F)c(N3CCC(c4cnccn4)C3)cc2n2c3ccccc3n(C)c12` (stereo not shown), the IC50 on c-Myc template DNA was 10.5 µM; in the data set with HCT-116 (setting [2]), 0.7 µM.
The matching figures for `CN1CCCC1CCNC(=O)c1c(=O)c2cc(F)c(SCCc3cnccn3)cc2n2c3ccccc3n(C)c12` (stereo not shown): 15 µM and 2.3 µM.
The matching figures for `O=C(NCCN1CCCC1)c1c(=O)c2cc(F)c(SCCc3cnccn3)cc2n2c1sc1ccccc12` [drawing 15]: 5.8 µM and 0.57 µM.
Taken in the same sequence, the figures for `Nc1ccccc1Sc1c(F)cc2c(=O)c(C(=O)NCCN3CCCC3)c3sc4ccccc4n3c2c1F` were 15 µM and 2.4 µM.
Regarding `CC(=O)N1CCN(c2nc3c(cc2F)c(=O)c(C(=O)NCCN2CCCC2)c2n(C)c4ccccc4n32)CC1` [drawing 655], the adverse effects result in the data set with HCT116 cells (25 and 12.5 mg/kg, nine consecutive days) was “no adverse effects observed”. In addition, the “activity in HCT116 xenograft” value is reported as “limited activity” in the data set on HCT116 cells (high dose (25 mg/kg), nine consecutive days) and “no activity” in the data set on HCT116 cells (mid dose (12.5 mg/kg), nine consecutive days).
On to `O=C(NCCN1CCCC1)c1c(=O)c2cnc(N3CCCC3)nc2n2c1sc1ccccc12` [drawing 654], for which, in the data set with HCT116 cells (setting [5]), the “activity in HCT116 xenograft” value is “activity” and the adverse effects entry is “no adverse effects observed”.
Take `CN1CCCC1CCNC(=O)c1c(=O)c2ccc(N3CCC(c4cnccn4)C3)nc2n2c1sc1ccc(Cl)cc12` (stereo not shown) [drawing 656]: in the data set on HCT116 cells (setting [6]), the “activity in HCT116 xenograft” value is listed as “excellent activity with minimal dose dependency” and the adverse effects entry is on record as “No adverse effects were observed”.
In the case of `O=C(NCCN1CCCC1)c1c(=O)c2ccc(NCCN3CCOCC3)nc2n2c1sc1ccccc12` [drawing 307], in the data set with HCT-116 (setting [1]), the IC50 was 0.02 µM.
Turning to `O=C(NCCN1CCCC1)c1c(=O)c2cnc(N3CCCC3)nc2n2c1sc1ccc(Cl)cc12` [drawing 212], the IC50 in the data set with HCT-116 (M CELL HCT-116, Table 1C, read-out: M DATA) came out at 0.21 µM.
As to `Cn1c2ccccc2n2c3cc(F)c(F)cc3c(=O)c(C(=O)NCCN3CCCC3)c12`, the results for the IC50 on c-Myc template DNA and in the data set on HCT-116 (setting [2]) were 15 µM and 0.3 µM, respectively.
Regarding `CN1CCCC1CCNC(=O)c1c(=O)c2cc(SCCc3cnccn3)ccc2n2c1sc1ccccc12` (stereo not shown), the results for the IC50 on c-Myc template DNA and in the data set on HCT-116 (setting [2]) were 10 µM and 6.1 µM, respectively.
Take `CN1CCCC1CCNC(=O)c1c(=O)c2cc(F)c(SCCc3cnccn3)cc2n2c1sc1cc(Cl)ccc12` (stereo not shown): the results for the IC50 on c-Myc template DNA and in the data set with HCT-116 (setting [2]) were 1.7 µM and 3.57 µM, respectively.
On to `COc1ccc2c(c1)sc1c(C(=O)NCCC3CCCN3C)c(=O)c3cc(F)c(SCCc4cnccn4)cc3n12` (stereo not shown), for which the IC50 at c-Myc template DNA came out at 9.3 µM; in the data set on HCT-116 (setting [2]), 5.7 µM.
The matching figures for `CC(C)N1CCN(c2cc3c(cc2F)c(=O)c(C(=O)NCCC2CCCN2C)c2n(C)c4ccccc4n32)CC1` (stereo not shown): 15 µM and 0.3 µM.
As to `Cn1c2ccccc2n2c3cc(N4CCC(c5cnccn5)C4)c(F)cc3c(=O)c(C(=O)NCCN3CCCC3)c12` (stereo not shown), the IC50 was 8.2 µM on c-Myc template DNA and 0.1 µM in the data set on HCT-116 (setting [2]).
Taken in the same sequence, the figures for `O=C(NCCN1CCCC1)c1c(=O)c2cc(F)c(N3CCC(c4cnccn4)C3)c(F)c2n2c1sc1ccccc12` (stereo not shown) were 11.6 µM and 3.5 µM.
For `CN1CCCC1CCNC(=O)c1c(=O)c2cc(F)c(SCCc3cnccn3)cc2n2c1sc1ccccc12` (stereo not shown) [drawing 14], the IC50 at c-Myc template DNA came to 7.2 µM; in the data set on HCT-116 (setting [2]), 1.1 µM.
As to `CC(C)N1CCN(c2nc3c(cc2F)c(=O)c(C(=O)NCCC2CCCN2C)c2sc4ccc(Cl)cc4n23)CC1` (stereo not shown), in the data set with HCT116 cells (setting [5]), the “activity in HCT116 xenograft” value is recorded as “activity” and the adverse effects result is given as “no adverse effects observed”.
